Assay results reported in patent US7846963B2, “2-oxo-heterocyclic compounds and the pharmaceutical compositions comprising the same” (Korea Research Institute of Bioscience and Biotechnology, priority 2003, dated 2010).
pIC50: −log10 of the molar value.

System: production of TNF-alpha in RAW 264.7 cells
Assay: Inhibition of TNF-alpha production in LPS-treated RAW 264.7 cells, ELISA of culture supernatant
Assay type: cell-based, mouse
Conditions: Mus musculus, RAW264.7, Table 23, LPS 0.3 μg/ml, 24 hours, compounds up to 10 μM, IC50 unit inferred
Experimental: To test the inhibiting activity of the compounds prepared from above Examples on the production of TNF-alpha, the concentration of TNF-alpha in the cell supernatant was measured.
Each 200 μl of RAW 264.7 cells (ATCC, USA), a mouse macrophage cell line was seeded onto each well of 96-well microtiter plate (Nunc, Sweden) to the concentration ranging from 1×10^6 cells/ml to 5×10^6 cells/ml, and incubated in DMEM (Dulbeco's modified eagles medium) media containing 5% FBS (fetal bovine serum) at 37° C. in 5% CO2 incubator.
Various concentrations of the compounds of the present invention ranging from […] to 10 μM and LPS (Sigma, USA) in the final concentration of 0.3 μg/ml were treated to activated cell simultaneously. The treated cells were cultured at 37° C. for 24 hours in 5% CO2 incubator and the cultured cells were collected after the cultivation
And then the concentration of TNF-alpha secreted from the culture supernatant of RAW 264.7 cells was determined by ELISA according to the manufacture's instruction (R&D Systems, Minneapolis, Minn.).
The result was shown in Table 23 (AA: IC50's<1, A: IC50's<5, B: IC50's<10, C: IC50's>10).

Compound	pIC50
COc1ccc(CN2CCC=C(CCC(=O)NO)C2=O)c(OC)c1 [Example 57, 3-[1-(2,4-Dimethoxybenzyl)-2-oxo-1,2,5,6-tetrahydropyridin-3-yl]N-hydroxypropionamide]	> 5.00
COc1ccc(CN2CC=C(CCC(=O)NO)C2=O)cc1 [Example 11, N-hydroxy-3-[1-(4-methoxy-benzyl)-2-oxo-2,5-dihydro-1H-pyrrol-3-yl]-propionamide]	> 6.00
O=C(CCC1CCCN(CCc2ccccc2)C1=O)NO (stereo not shown) [Example 81, N-hydroxy-3-(2-oxo-1-phenethyl-piperidine-3-yl)-propionamide]	> 5.30
COc1ccc(CN2CC=C(CC(=O)NO)C2=O)c(OC)c1 [Example 21, 2-[1-(2,4-dimethoxy-benzyl)-2-oxo-2,5-dihydro-1H-pyrrol-3-yl]-N-hydroxy-acetamide]	< 5.00
O=C(CCC1=CCN(CCc2ccccc2)C1=O)NO [Example 3, N-hydroxy-3-(2-oxo-1-phenethyl-2,5-dihydro-1H-pyrrol-3-yl)-propionamide]	> 5.30
Cc1ccc(S(=O)(=O)Nc2ccc(CN3CCC=C(CCC(=O)O)C3=O)cc2)cc1 [Example 80]	> 6.00
O=C(CCC1=CCN(Cc2ccc(Cl)cc2)C1=O)NO [Example 13, 3-[1-(4-chloro-benzyl)-2-oxo-2,5-dihydro-1H-pyrrol-3-yl]-N-hydroxy-propionamide]	> 5.30
O=C(CCC1=CCCN(CCc2ccccc2)C1=O)NO [Example 60]	> 5.30
Cc1cccc(CN2CC=C(CCC(=O)NO)C2=O)c1 [Example 7, N-hydroxy-3-[1-(3-methyl-benzyl)-2-oxo-2,5-dihydro-1H-pyrrol-3-yl]-propionamide]	> 5.30
COc1ccc(CN2CCC=C(CC(=O)NO)C2=O)c(OC)c1 [Example 82, 2-[1-(2,4-dimethoxy-benzyl)-2-oxo-1,2,5,6-tetrahydro-pyridin-3-yl]-N-hydroxy-acetamide]	> 5.30
CS(=O)(=O)N(c1ccc(CN2CCC=C(CCC(=O)NO)C2=O)cc1)S(C)(=O)=O [Example 76, N-hydroxy-3-[1-(4-dimethylsulfonylamino-benzyl)-2-oxo-1,2,5,6-tetrahydro-pyridin-3-yl]-propionamide]	< 5.00
O=C(CCC1=CCCN(CCc2cccs2)C1=O)NO [Example 104, N-hydroxy-3-[2-oxo-1-(2-thiophen-2-yl-ethyl)-1,2,5,6-tetrahydro-pyridin-3-yl]-propionamide]	< 5.00
O=C(CCC1=CCN(CCCc2ccc(Cl)cc2)C1=O)NO [Example 45, 3-{1-[3-(4-chloro-phenyl)-propyl]-2-oxo-2,5-dihydro-1H-pyrrol-3-yl]-N-hydroxy-propionamide]	> 5.30
O=C(CCC1=CCCN(Cc2ccc3ccccc3c2)C1=O)NO [Example 103, N-hydroxy-3-(1-(naphthalene-2-yl-methyl)-2-oxo-1,2,5,6-tetrahydro-pyridin-3-yl)-propionamide]	> 5.30
O=C(CCC1=CCN(CCc2ccccc2F)C1=O)NO [Example 28, 3-{1-[2-(2-fluoro-phenyl)-ethyl]-2-oxo-2,5-dihydro-1H-pyrrol-3-yl}-N-hydroxy-propionamide]	> 5.30
O=C(O)CCC1=CCCN(Cc2ccc(NC(=O)c3ccccc3)cc2)C1=O [Example 79, 3-[1-(4-benzoylamino-benzyl)-2-oxo-1,2,5,6-tetrahydro-pyridin-3-yl]-propionic acid]	> 5.30
Cc1ccc(CN2CC=C(CCC(=O)NO)C2=O)cc1 [Example 8, N-hydroxy-3-[1-(4-methyl-benzyl)-2-oxo-2,5-dihydro-1H-pyrrol-3-yl]-propionamide]	> 5.30
O=C(CCCC1=CCCN(CCCc2ccccc2)C1=O)NO [Example 97, N-hydroxy-4-[2-oxo-1-(3-phenyl-propyl)-1,2,5,6-tetrahydro-pyridin-3-yl]-butylamide]	> 5.30
O=C(CC1CCN(CCc2ccccc2)C1=O)NO (stereo not shown) [Example 27, N-hydroxy-2-(2-oxo-1-phenethyl-pyrrolidin-3-yl)-acetamide]	< 5.00
